The subject of test [1] is activation of MAPK within vascular endothelial cells induced by VEGF stimulation. The experiment in a line: Inhibitory activity against activation of MAPK within vascular endothelial cells induced by VEGF stimulation. The class given is cell-based. The conditions noted are these: human funicular venous vascular endothelial cells, VEGF 50 ng/ml, phosphorylated MAPK by immunoblotting. The method, then: Measurement of Inhibitory Activity Against Activation of MAPK Within Vascular Endothelial Cells Induced by VEGF Stimulation
Human funicular venous vascular endothelial cells (purchased from Chronetics) were cultured in an EGM-2 medium (purchased from Chronetics) within an incubator containing 5% carbon dioxide until 50 to 70% confluent, and the culture was inoculated into wells, containing the same medium, in a 96-well flat-bottom plate in an amount of 1.5×10^5 per well. After cultivation at 37° C. overnight, the medium was replaced by an EBM-2 medium containing 0.5% fetal calf serum (purchased from Chronetics), followed by cultivation for 24 hr. A solution of the test compound in dimethyl sulfoxide was added to each well, and the cultivation was continued at 37° C. for additional one hr. A human recombinant vascular endothelial growth factor (hereinafter abbreviated to “VEGF”) was added to a final concentration of 50 ng/ml, and the stimulation of cells was carried out at 37° C. for 8 min. The medium was removed, the cells were washed with phosphate buffered saline (pH 7.4), and 10 μl of a solubilization buffer (Tris buffered saline (pH 7.4) containing 1% Triton X100, 2 mM sodium orthovanadylate, and 1 mM disodium ethylenediaminetetraacetate) was then added thereto. The mixture was shaken at 4° C. for one hr to solubilize the cells. An equal amount of Tris buffered saline containing 1% sodium laurylsulfate was added to and thoroughly mixed with the solution. This solution (2 μl) was adsorbed on a PVDF filter by dot blotting, and this filter was subjected to immunoblotting with anti-tyrosine phosphorylated MAPK antibody (purchased from Daiichi Pure Chemicals).
The level of phosphorylated MAPK was quantitatively determined with a densitometer, and the percentage phosphorylated MAPK in the presence of the test compound was determined by presuming the level of phosphorylated MAPK with the addition of VEGF in the absence of the test compound to be 100% and the level of phosphorylated MAPK in the absence of the test compound and VEGF to be 0%. The test compound concentration (IC50) necessary for inhibiting 50% of the activation of MAPK was calculated based on the percentage of phosphorylated MAPK.
On the technique in general: In western blotting, separated proteins are transferred to a membrane and probed.

The test system of a further test is Human glioma cells GL07. The experiment in a line: Antitumor effect on human glioma cells (GL07) transplanted into nude mice. The class given is in vivo. To be noted: 20 mg/kg once a day for 9 days; for inhibition in vivo at 20 mg/kg: Mus musculus, Glioma cell, 216 h, read-out: TGIR, % (tumor growth inhibition rate). In short, it runs like this:
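GL07 xenografts in nude mice, grouped (n=4) at ~100 mm^3 tumor volume. Test compound 20 mg/kg p.o. or i.p. once daily for 9 days; vehicle controls. TGIR = (1−Tx/Cx)×100 from tumor volumes normalized to day-of-start volume = 1.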

In the next test the target is T1, human KDR (Homo sapiens, UniProt P35968).
T1 construct: expressed in transfected cells; host or cells: NIH 3T3 cells (Sawano A et al., Cell Growth & Differentiation 7, 213-221 (1996))
The experiment in a line: Inhibitory activity against KDR phosphorylation by ELISA. The format is cell-based. The conditions noted are these: NIH 3T3 cells transfected with human KDR, VEGF 100 ng/ml. (In general: An ELISA detects its analyte on a solid surface through an enzyme-linked reagent.)

pIC50: −log10 of the molar value. Where two headings read alike, the source gives them in different places.

The pIC50 is −log10 of the IC50, conventionally taken in molar units. A lower pIC50 goes with a high IC50.

T1 sequence (P35968 20-1356): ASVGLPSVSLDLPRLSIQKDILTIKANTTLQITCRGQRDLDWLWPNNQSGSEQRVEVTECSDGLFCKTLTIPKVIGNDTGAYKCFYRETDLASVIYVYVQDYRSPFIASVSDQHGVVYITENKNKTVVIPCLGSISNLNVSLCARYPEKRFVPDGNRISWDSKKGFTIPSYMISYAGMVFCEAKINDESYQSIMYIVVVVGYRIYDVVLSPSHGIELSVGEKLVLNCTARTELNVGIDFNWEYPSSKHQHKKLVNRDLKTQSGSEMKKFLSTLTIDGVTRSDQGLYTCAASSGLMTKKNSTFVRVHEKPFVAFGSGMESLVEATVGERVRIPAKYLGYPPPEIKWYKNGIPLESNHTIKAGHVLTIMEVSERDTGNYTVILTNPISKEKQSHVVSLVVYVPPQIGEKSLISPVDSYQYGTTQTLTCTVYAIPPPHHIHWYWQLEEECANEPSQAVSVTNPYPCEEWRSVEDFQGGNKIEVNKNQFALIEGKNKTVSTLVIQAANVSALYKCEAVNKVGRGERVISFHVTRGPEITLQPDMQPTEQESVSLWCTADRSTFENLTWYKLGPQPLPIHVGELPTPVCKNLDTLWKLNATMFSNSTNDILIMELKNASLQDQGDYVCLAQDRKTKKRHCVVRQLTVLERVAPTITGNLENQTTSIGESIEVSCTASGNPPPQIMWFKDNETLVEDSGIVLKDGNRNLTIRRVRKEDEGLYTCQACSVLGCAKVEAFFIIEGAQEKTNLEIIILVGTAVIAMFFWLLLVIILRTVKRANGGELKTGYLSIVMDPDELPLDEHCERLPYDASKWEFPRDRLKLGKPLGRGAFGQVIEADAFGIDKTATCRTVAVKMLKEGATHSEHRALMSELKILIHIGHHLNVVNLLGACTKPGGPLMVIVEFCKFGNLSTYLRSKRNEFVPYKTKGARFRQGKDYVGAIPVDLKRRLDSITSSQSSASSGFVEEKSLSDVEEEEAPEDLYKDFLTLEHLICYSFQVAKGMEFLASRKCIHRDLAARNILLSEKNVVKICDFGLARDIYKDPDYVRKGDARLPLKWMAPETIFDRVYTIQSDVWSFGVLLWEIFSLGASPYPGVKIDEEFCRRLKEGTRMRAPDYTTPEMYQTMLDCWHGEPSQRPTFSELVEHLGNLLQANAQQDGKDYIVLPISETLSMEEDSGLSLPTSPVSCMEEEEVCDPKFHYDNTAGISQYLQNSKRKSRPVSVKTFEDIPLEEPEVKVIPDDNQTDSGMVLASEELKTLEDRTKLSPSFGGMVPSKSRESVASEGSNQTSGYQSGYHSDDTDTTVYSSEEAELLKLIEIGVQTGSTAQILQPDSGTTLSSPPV

In test [1] (Endothelial cell), `CCCCNC(=O)Nc1ccc(Oc2ccnc3cc(OC)c(OC)cc23)cc1F` [Example 9, N-Butyl N′-{4-[(6,7-dimethoxy-4-quinolyl)oxy]-2-fluorophenyl}urea] gave a negative logarithm of the IC50 (pIC50) of 8.29. Also, the inhibition in vivo at 20 mg/kg with Human glioma cells GL07 (ip, GL07, intraperitoneal) is 59%. Take `CCNC(=O)Nc1ccc(Oc2ncnc3cc(OC)c(OC)cc23)cc1` [Example 63, N-{4-[(6,7-Dimethoxy-4-quinazolinyl)oxy]-phenyl}-N′-ethylurea]: the values for the negative logarithm of the IC50 (pIC50) (against human KDR; in test [1] (Endothelial cell)) were 6.82 and 7.15, respectively. As for `COc1cc2c(Oc3ccc(NC(=O)Nc4ccc(F)cc4F)c(F)c3)ccnc2cc1OCCN1CCOCC1` [Example 50, N-(2,4-Difluorophenyl)-N′-(2-fluoro-4-{[6-methoxy-7-(2-morpholinoethoxy)-4-quinolyl]oxy}phenyl)-urea], the pIC50 in test [1] (Endothelial cell) was 9.30. Also, the inhibition in vivo at 20 mg/kg in the test on Human glioma cells GL07 (GL07, oral) came to 59%. On to `COc1cc2ncnc(Oc3ccc(NC(=O)Nc4ccc(Cl)cn4)c(Cl)c3)c2cc1OC` [Example 87, N-{2-Chloro-4-[(6,7-dimethoxy-4-quinazolinyl)oxy]phenyl}-N′-(5-chloro-2-pyridyl)urea], for which the pIC50 against human KDR was 6.96; in test [1] (Endothelial cell), 7.24. Consider `C#CCNC(=O)Nc1ccc(Oc2ccnc3cc(OC)c(OC)cc23)cc1F` [Example 7, N-{4-[(6,7-Dimethoxy-4-quinolyl)oxy]-2-fluorophenyl}-N′-(2-propynyl)urea], for which the negative logarithm of the IC50 (pIC50) in test [1] (Endothelial cell) is 8.28.

For `COc1ccccc1NC(=O)Nc1ccc(Oc2ncnc3cc(OC)c(OC)cc23)cc1` [Example 75, N-{4-[(6,7-Dimethoxy-4-quinazolinyl)oxy]-phenyl}-N′-(2-methoxyphenyl)urea], the figures for the pIC50 (at human KDR; in test [1] (Endothelial cell)) were 8.85 and 8.92, respectively.

The compound `CCC(C)NC(=O)Nc1ccc(Oc2ccnc3cc(OC)c(OC)cc23)cc1F` (stereo not shown) [Example 10, N-(sec-Butyl)-N′-{4-[(6,7-dimethoxy-4-quinolyl)oxy]-2-fluorophenyl}urea] showed a negative logarithm of the IC50 (pIC50) in test [1] (Endothelial cell) of 8.11.

In test [1], `CCNC(=O)Nc1ccc(Oc2ccnc3cc(OC)c(OC)cc23)cc1F` [Example 8, N-{4-[(6,7-Dimethoxy-4-guinolyl)oxy]-2-fluorophenyl}-N′-ethylurea] had a negative logarithm of the IC50 (pIC50) of 7.96. On to `COc1cc2ncnc(Oc3ccc(NC(=O)NCc4ccc(F)cc4F)cc3)c2cc1OC` [Example 70, N-(2,4-Difluorobenzyl)-N′-{4-[(6,7-dimethoxy-4-quinazolinyl)oxy]phenyl}urea], for which the negative logarithm of the IC50 (pIC50) against human KDR was 7.49; in test [1] (Endothelial cell), 8.17. In turn, `COc1cc2nccc(Oc3ccc(NC(=O)Nc4cccc5ccccc45)c(Cl)c3)c2cc1OC` [Example 23, N-{2-Chloro-4-[(6,7-dimethoxy-4-guinolyl)oxy]phenyl}-N′-(1-naphthyl)urea] showed a negative-log IC50 (pIC50) in test [1] of 8.27.

As to `CCNC(=O)Nc1ccc(Oc2ncnc3cc(OC)c(OC)cc23)cc1Cl` [Example 76, N-{2-chloro-4-[(6,7-dimethoxy-4-quinazolinyl)-oxy]phenyl}-N′-ethylurea], the values for the pIC50 (against human KDR; in test [1] (Endothelial cell)) were 8.46 and 8.10, respectively. As for `CCC(C)NC(=O)Nc1ccc(Oc2ncnc3cc(OC)c(OC)cc23)cc1F` (stereo not shown) [Example 90, N-(sec-Butyl)-N′-{4-[(6,7-dimethoxy-4-quinazolinyl)oxy]-2-fluorophenyl}urea], the pIC50 against human KDR is 7.24; in test [1] (Endothelial cell) it was 7.38.

`COc1cc2ncnc(Oc3ccc(NC(=O)Nc4ccccc4C)c(F)c3)c2cc1OC` [Example 95, N-{4-[(6,7-Dimethoxy-4-quinazolinyl)oxy]-2-fluorophenyl}-N′-(2-methylphenyl)urea]: the pIC50 was 8.42 against human KDR and 8.57 in test [1] (Endothelial cell). With `COCCOc1cc2nccc(Oc3ccc(NC(=O)Nc4ccc(F)cc4F)c(C)c3C)c2cc1OC` [Example 56, N-(2,4-Difluorophenyl)-N′-(4-{[6-methoxy-7-(2-methoxyethoxy)-4-quinolyl]oxy}-2,3-dimethylphenyl)-urea], the pIC50 in test [1] (Endothelial cell) is 8.29. On the same count and under the same terms, next, `COCCOc1cc2nccc(Oc3ccc(NC(=O)Nc4ccccc4OC)c(C)c3C)c2cc1OC` [Example 57, N-(4-{[6-Methoxy-7-(2-methoxyethoxy)-4-quinolyl]oxy}-2,3-dimethylphenyl)-N′-(2-methoxyphenyl)urea]: 8.19.

Regarding `C=CCNC(=O)Nc1ccc(Oc2ccnc3cc(OC)c(OC)cc23)cc1F` [Example 4, N-Allyl-N′-{4-[(6,7-dimethoxy-4-quinolyl)-oxy]-2-fluorophenyl}urea], the pIC50 in test [1] (Endothelial cell) was 8.68. In the test with Human glioma cells GL07 (GL07, oral), the inhibition in vivo at 20 mg/kg was 61%.

`COc1cc2nccc(Oc3ccc(NC(=O)Nc4ccccc4C)c(Cl)c3)c2cc1OC` [Example 19, N-{2-Chloro-4-[(6,7-dimethoxy-4-quinolyl)oxy]phenyl}-N′-(2-methylphenyl)urea] had a pIC50 in test [1] (Endothelial cell) of 9.22. Regarding `C#CCNC(=O)Nc1ccc(Oc2ncnc3cc(OC)c(OC)cc23)cc1F` [Example 92, N-{4-[(6,7-Dimethoxy-4-quinazolinyl)oxy]-2-fluorophenyl}-N′-(2-propynyl)urea], the pIC50 against human KDR is 7.20; in test [1] (Endothelial cell), 7.34.

`COCCOc1cc2nccc(Oc3ccc(NC(=O)Nc4ccc(F)cc4F)c(Cl)c3)c2cc1OC` [Example 54, N-(2-Chloro-4-{[6-methoxy-7-(2-methoxyethoxy)-4-quinolyl]oxy}phenyl)-N′-(2,4-difluorophenyl)urea]: the pIC50 in test [1] (Endothelial cell) was 9.30. Further, the inhibition in vivo at 20 mg/kg with Human glioma cells GL07 (GL07, oral) was found to be 59%. In test [1] (Endothelial cell), `COc1cc2nccc(Oc3ccc(NC(=O)NCc4ccc(F)cc4F)c(F)c3)c2cc1OC` [Example 1, N-(2,4-Difluorobenzyl)-N′-{4-[(6,7-dimethoxy-4-quinolyl)oxy]-2-fluorophenyl}urea] showed a negative logarithm of the IC50 (pIC50) of 8.74.

On to `COc1ccccc1NC(=O)Nc1ccc(Oc2ncnc3cc(OC)c(OC)cc23)cc1C` [Example 106, N-{4-[(6,7-Dimethoxy-4-quinazolinyl)oxy]-2-methylphenyl}-N′-(2-methoxyphenyl)urea], for which the values for the pIC50 (against human KDR; in test [1] (Endothelial cell)) were 8.82 and over 9.00, respectively. In the case of `COc1cc2nccc(Oc3ccc(NC(=O)NCC(C)C)c(F)c3)c2cc1OC` [Example 11, N-{4-[(6,7-Dimethoxy-4-quinolyl)oxy]-2-fluorophenyl}-N′-isobutylurea], the negative-log IC50 (pIC50) in test [1] (Endothelial cell) was 7.82.

With `CCCNC(=O)Nc1ccc(Oc2ccnc3cc(OCc4ccccn4)c(OC)cc23)cc1Cl` [Example 141, N-(2-Chloro-4-{[6-methoxy-7-(2-pyridylmethoxy)-4-quinolyl]oxy}phenyl)-N′-propylurea], the negative logarithm of the IC50 (pIC50) against human KDR is 7.85. In the test on Human glioma cells GL07 (GL07, oral), the inhibition in vivo at 20 mg/kg worked out at 28%. In turn, `CCCNC(=O)Nc1ccc(Oc2ccnc3cc(OC)c(OC)cc23)cc1F` [Example 5, N-{4-[(6,7-Dimethoxy-4-guinolyl)oxy]-2-fluorophenyl}-N′-propylurea] gave a pIC50 in test [1] of 8.54. In the test with Human glioma cells GL07 (GL07, oral), the “TGIR, % (tumor growth inhibition rate)” value was found to be 59%.

`COc1cc2c(Oc3ccc(NC(=O)Nc4ccc(F)cc4F)c(Cl)c3)ccnc2cc1OCCn1ccnn1` [Example 170, N-[2-chloro-4-(6-methoxy-7-{[2-(1H-1,2,3-triazol-1-yl)ethoxy]-4-quinolyl}oxy)phenyl]-N′-(2,4-difluorophenyl)urea] gave a negative-log IC50 (pIC50) against human KDR of 8.96. In addition, the “TGIR, % (tumor growth inhibition rate)” value in the test on Human glioma cells GL07 (GL07, oral) is listed as 64%. In the case of `CCCNC(=O)Nc1ccc(Oc2ncnc3cc(OCc4ccncc4)c(OC)cc23)cc1Cl` [Example 123, N-(2-Chloro-4-{[6-methoxy-7-(4-pyridylmethoxy)-4-quinazolinyl]oxy}phenyl)-N′-propylurea], the negative-log IC50 (pIC50) on human KDR is 8.05. The inhibition in vivo at 20 mg/kg with Human glioma cells GL07 (GL07, oral) is 31%.

These data come from patent US7169789B2 (Kirin Beer Kabushiki Kaisha, priority 1999, dated 2007).
